Data published in paper PMC10347550, “Cyclic Ruthenium-Peptide Conjugates as Integrin-Targeting Phototherapeutic Prodrugs for the Treatment of Brain Tumors” (Journal of the American Chemical Society, 2023).
pEC50: −log10 of the molar value. Read-outs that look alike come from different tables or passages of the source.

What was measured:
A549 cells = experiment: 2D cytotoxicity assay, 24 h DLI & no wash, SRB endpoint; format: cell-based, human; conditions: for pEC50: A549 2D monolayer, not washed, n = 3
Description: (§1) For each complex, two identical plates were prepared, one of which was irradiated with light, while the other was used as a dark control. […] Finally, at t = 96 h, 100 μL of cold trichloroacetic acid (10% w/v) was added to each well to fix the cells, and all plates were then transferred to a 4 °C refrigerator for 48 h before performing an SRB cell quantification endpoint assay.[72] Trichloroacetic acid was first removed and each plate was gently washed with demi water 3–5 times. Then, each well was dried in the air, and 100 μL of 0.6% SRB solution (0.6% w/v in 1% v/v acetic acid/H2O solution) was added into each well where it was allowed to stain for 30 min. Then, the plates were washed 3–5 times using an acetic acid solution (1% v/v). Once the plate was washed it was allowed to dry overnight. Then, 200 μL of 10 mM Tris base buffer was added to each well and the plate was allowed to sit on an orbital shaker for 0.5–16 h. After mixing, the absorbance of each well was determined by an M1000 Tecan Reader, reading at 510 nm. All experiments were conducted in independent biological triplicate. The obtained data were analyzed with Graphpad Prism 5 using the dose–response two-parameter Hill slope equation (eq 1) to obtain the half-maximal effective concentrations EC50 (defined as the concentration of drug that kills 50% of cells, compared to the untreated control). [drawing 1] 1

PC-3 cells = experiment: as above; format: cell-based, human; conditions: for pEC50: PC-3 2D monolayer, not washed, SRB at 96 h, n = 3
Description: as §1

U87MG cells = experiment: as above; format: cell-based, human; conditions: for pEC50: U87MG 2D monolayer, not washed, SRB at 96 h, n = 3; for PI (EC50,dark/EC50,light): U87MG
Description: as §1

[1] = test system: ITGAV knockdown U87MG cells (U87MG-kd); experiment: Cellular Ru uptake by ICP-MS, 2 h; format: cell-based, human; conditions: 10 μM, dark, normoxia, n = 3
Description: The uptake studies in U87MG and U87MG-kd cell lines were conducted as follows: 2 × 10^5 cells were cultured in 6-well plates for 24 h in Opti-MEM (2 mL), after which cells were incubated with Δ-[1]Cl2 or Δ-[3]Cl2 (10 μM) for 2 h, washed with cold PBS twice, harvested, concentrated in 200 μL of PBS, and counted using trypan blue and a cell counter (Bio-Rad). Finally, cell pellets were collected in 1.5 mL Eppendorf tubes after removing additional PBS by centrifuging at 500g; 0.25 mL of 65% HNO3 was then added to each tube, and all tubes were kept at room temperature (RT) overnight. The cell lysates were transferred to 15 mL centrifuge tubes (Biologix) and filled with 4.75 mL of MilliQ H2O.
The ruthenium concentration was measured in each sample by ICP-MS (NexION 2000, PerkinElmer), providing the metal content in each well in ppb. Combining the cell numbers and Ru uptake, averaging over technical triplicates, the ruthenium uptake values were finally expressed in μg Ru/million cells.

[2] = Dark stability by UV-vis spectroscopy; format: physicochemical; conditions: 24 h
[3] = 1% O2, dark, 24 h treatment, SRB at 96 h, read-out: EC50,dark
[4] = 1% O2, 520 nm, 7.22 mW/cm^2, 13.1 J/cm^2, 30 min, SRB at 96 h, read-out: EC50,light
[5] = 21% O2, dark, 24 h treatment, SRB at t = 96 h, read-out: EC50,dark
[6] = 21% O2, 24 h treatment, 520 nm, 10.9 mW/cm^2, 13.1 J/cm^2, 20 min, SRB at 96 h, read-out: EC50,light
[7] = 1% O2, dark, 24 h treatment, read-out: EC50,dark
[8] = 1% O2, 520 nm, 7.22 mW/cm^2, 13.1 J/cm^2, 30 min, read-out: EC50,light
[9] = 21% O2, dark, 24 h treatment, read-out: EC50,dark
[10] = 21% O2, 520 nm, 10.9 mW/cm^2, 13.1 J/cm^2, 20 min, read-out: EC50,light

[Ru(Ph2phen)2(κ^S,κ^N-(Ac-MRGDH-NH2))]Cl2 (sidechain bridge or staple) [Λ-[1]Cl2] [cyclic ruthenium-peptide conjugate, Ac-MRGDH-NH2 coordinated via Met S and His N]
pEC50 (A549 cells; [3]): 4.29 | pEC50 (A549 cells; [4]): 4.72 | pEC50 (A549 cells; [5]): 4.18 | pEC50 (A549 cells; [6]): 5.30 | PI (EC50,dark/EC50,light) (A549 cells; A549, 1% O2): 2.7 | PI (EC50,dark/EC50,light) (A549 cells; A549, 21% O2): 13 | pEC50 (PC-3 cells; [7]): 4.13 | pEC50 (PC-3 cells; [8]): 4.33 | pEC50 (PC-3 cells; [9]): 4.18 | pEC50 (PC-3 cells; [10]): 5.28 | PI (EC50,dark/EC50,light) (PC-3 cells; PC-3, 1% O2): 1.5 | PI (EC50,dark/EC50,light) (PC-3 cells; PC-3, 21% O2): 12 | pEC50 (U87MG cells; [7]): 4.38 | pEC50 (U87MG cells; [8]): 4.72 | pEC50 (U87MG cells; [9]): 4.38 | pEC50 (U87MG cells; [10]): 5.42 | PI (EC50,dark/EC50,light) (U87MG cells; 1% O2): 2.2

[Ru(Ph2phen)2(κ^S,κ^N-(Ac-MRGDH-NH2))]Cl2 (sidechain bridge or staple) [Δ-[1]Cl2] [cyclic ruthenium-peptide conjugate, Ac-MRGDH-NH2 coordinated via Met S and His N]
pEC50 (A549 cells; [3]): 4.30 | pEC50 (A549 cells; [4]): 4.76 | pEC50 (A549 cells; [5]): 4.14 | pEC50 (A549 cells; [6]): 5.37 | PI (EC50,dark/EC50,light) (A549 cells; A549, 1% O2): 2.9 | PI (EC50,dark/EC50,light) (A549 cells; A549, 21% O2): 17 | pEC50 (PC-3 cells; [7]): 4.21 | pEC50 (PC-3 cells; [8]): 4.29 | pEC50 (PC-3 cells; [9]): 4.28 | pEC50 (PC-3 cells; [10]): 5.22 | PI (EC50,dark/EC50,light) (PC-3 cells; PC-3, 1% O2): 1.2 | PI (EC50,dark/EC50,light) (PC-3 cells; PC-3, 21% O2): 9 | pEC50 (U87MG cells; [7]): 4.37 | pEC50 (U87MG cells; [8]): 4.73 | pEC50 (U87MG cells; [9]): 4.40 | pEC50 (U87MG cells; [10]): 5.44 | PI (EC50,dark/EC50,light) (U87MG cells; 1% O2): 2.3 | PI (EC50,dark/EC50,light) (U87MG cells; 21% O2): 11 | uptake amount compared to U87MG-wt cells [1]: significantly decreased | dark stability, absorbance spectra ([2]; 50 μM in Opti-MEM containing 2.5% FCS, UV-vis): did not show any variation for 24 h | intensity of the UV-vis spectrum ([2]; 50 μM in Opti-MEM deprived of FCS): gradually decreased, suggesting precipitation
